Test results reported in patent US9944678B2, “Immunomodulators” (BRISTOL-MYERS SQUIBB COMPANY, priority 2014, dated 2018).
Starred links: 1 amine or outer side, 2 acyl side, 3 side chain; linkers in the order of their positions; H or OH if unused. Positions of bridges follow the written chain, without caps; N, C: chain ends. Non-standard residues stand in square brackets, D forms with d. Residues, ends and D or L forms follow the SMILES beside them. ξ: configuration not given here. X5 = NC(=O)CNC(=O)[C@H](CSCC(=O)[*:1])CC(=O)C1(N[*:2])CC1; Bta = N[C@@H](Cc1csc2ccccc12)C(=O)O; Hyp = O=C(O)[C@@H]1C[C@@H](O)CN1; NMeNle = CCCC[C@H](NC)C(=O)O; hLeu = CC(C)CC[C@H](N)C(=O)O; NMeA = CN[C@@H](C)C(=O)O; Dab = NCC[C@H](N)C(=O)O; Dap = NC[C@H](N)C(=O)O; Ac3c = NC1(C(=O)O)CC1; Aib = CC(C)(N)C(=O)O; ξC = NC(CS)C(=O)O; Sar = CNCC(=O)O

Target: T1, PD-1-Ig binding to PD-L1-TVMV-His (PD-L1-His) (Homo sapiens, UniProt Q9NZQ7)
T1 construct: hPDL1(19-239)-TVMV-His; TVMV protease cleavage site (C); made in house; host or cells: HEK293T cells
T1 sequence (Q9NZQ7 with tags, fused parts or gaps): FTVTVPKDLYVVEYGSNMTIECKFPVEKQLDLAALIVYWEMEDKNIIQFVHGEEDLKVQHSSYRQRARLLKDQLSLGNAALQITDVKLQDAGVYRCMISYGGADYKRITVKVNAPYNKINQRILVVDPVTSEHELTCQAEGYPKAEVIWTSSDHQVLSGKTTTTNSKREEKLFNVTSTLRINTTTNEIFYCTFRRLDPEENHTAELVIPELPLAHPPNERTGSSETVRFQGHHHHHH
Assay: PD-1/PD-L1 Homogenous Time-Resolved Fluorescence (HTRF) binding assay
Conditions: PD-1-Ig/PD-L1-His binding
Text: The ability of the macrocyclic peptides of the present disclosure to bind to PD-L1 was investigated using a PD-1/PD-L1 Homogenous Time-Resolved Fluorescence (HTRF) binding assay.
Homogenous Time-Resolved Fluorescence (HTRF) Assays of Binding of Soluble PD-1 to Soluble PD-L1. Soluble PD-1 and soluble PD-L1 refers to proteins with carboxyl-end truncations that remove the transmembrane-spanning regions and are fused to heterologous sequences, specifically the Fc portion of the human immunoglobuling G sequence (Ig) or the hexahistidine epitope tag (His). All binding studies were performed in an HTRF assay buffer consisting of dPBS supplemented with 0.1% (w/v) bovine serum albumin and 0.05% (v/v) Tween-20. For the PD-1-Ig/PD-L1-His binding assay, inhibitors were pre-incubated with PD-L1-His (10 nM final) for 15 m in 4 μl of assay buffer, followed by addition of PD-1-Ig (20 nM final) in 1 μl of assay buffer and further incubation for 15 m. PD-L1 fusion proteins from either human, cynomologous macaques, mouse, or other species were used. HTRF detection was achieved using europium crypate-labeled anti-Ig monoclonal antibody (1 nM final) and allophycocyanin (APC) labeled anti-His monoclonal antibody (20 nM final). Antibodies were diluted in HTRF detection buffer and 5 μl was dispensed on top of binding reaction. The reaction was allowed to equilibrate for 30 minutes and signal (665 nm/620 nm ratio) was obtained using an EnVision fluorometer. Additional binding assays were established between PD-1-Ig/PD-L2-His (20 and 5 nM, respectively), CD80-His/PD-L1-Ig (100 and 10 nM, respectively) and CD80-His/CTLA4-Ig (10 and 5 nM, respectively). Binding/competition studies between biotinylated Compound No. 71 and human PD-L1-His were performed as follows. Macrocyclic peptide inhibitors were pre-incubated with PD-L1-His (10 nM final) for 60 minutes in 4 μl of assay buffer followed by addition of biotinylated Compound No. 71 (0.5 nM final) in 1 μl of assay buffer. Binding was allowed to equilibrate for 30 minutes followed by addition of europium crypated labeled Streptavidin (2.5 pM final) and APC-labeled anti-His (20 nM final) in 5 μl of HTRF buffer. The reaction was allowed to equilibrate for 30 m and signal (665 nm/620 nm ratio) was obtained using an EnVision fluorometer.
Recombinant Proteins. Carboxyl-truncated human PD-1 (amino acids 25-167) with a C-terminal human Ig epitope tag [hPD-1 (25-167)-3S-IG] and human PD-L1 (amino acids 18-239) with a C-terminal His epitope tag [hPD-L1(19-239)-tobacco vein mottling virus protease cleavage site (TVMV)-His] were expressed in HEK293T cells and purified sequentially by recombinant Protein A affinity chromatography and size exclusion chromatography. Human PD-L2-His (Sino Biologicals), CD80-His (Sino Biologicals), CTLA4-Ig (RnD Systems) were all obtained through commercial sources.
Ranges are as follows: A=0.10-10 μM; B=0.01-0.099 μM; C=0.004-0.0099 μM.

SMILES | IC50 (values given as range classes) [nM] | IC50 (numeric values) [nM]
CCCC[C@H]1C(=O)N(C)[C@@H](CCCC)C(=O)N[C@@H](CCCNC(=N)N)C(=O)N[C@H](C(=O)NCC(N)=O)CSCC(=O)N[C@@H](Cc2ccccc2)C(=O)N(C)[C@@H](C)C(=O)N[C@@H](CC(N)=O)C(=O)N2CCC[C@H]2C(=O)N[C@@H](Cc2cnc[nH]2)C(=O)N[C@@H](CC(C)C)C(=O)NC2(CCCC2)C(=O)N[C@@H](Cc2c[nH]c3ccccc23)C(=O)N[C@@H](CO)C(=O)N[C@@H](Cc2c[nH]c3ccccc23)C(=O)N1C [Example 1001] | 100 to 10000 | –
CCCC[C@H]1C(=O)N(C)[C@@H](CCCC)C(=O)N[C@@H](CCCNC(=N)N)C(=O)N[C@H](C(=O)NCC(N)=O)CSCC(=O)N[C@@H](Cc2ccccc2)C(=O)N(C)[C@@H](C)C(=O)N[C@@H](CC(N)=O)C(=O)N2CCC[C@H]2C(=O)N[C@@H](Cc2cnc[nH]2)C(=O)N[C@@H](CC(C)C)C(=O)NC(C)(C)C(=O)N[C@@H](Cc2c[nH]c3ccccc23)C(=O)N[C@@H](CO)C(=O)N[C@@H](Cc2c[nH]c3ccccc23)C(=O)N1C [Example 1002] | 100 to 10000 | –
CCCC[C@H]1C(=O)N(C)[C@@H](CCCC)C(=O)N[C@@H](CCCNC(=N)N)C(=O)N[C@H](C(=O)NCC(N)=O)CSCC(=O)N[C@@H](Cc2ccccc2)C(=O)N(C)[C@@H](C)C(=O)N[C@@H](CC(N)=O)C(=O)N2CCC[C@H]2C(=O)N[C@@H](Cc2cnc[nH]2)C(=O)N[C@@H](CC(C)C)C(=O)N(C)CC(=O)N[C@@H](Cc2c[nH]c3ccccc23)C(=O)NC(C)(C)C(=O)N[C@@H](Cc2c[nH]c3ccccc23)C(=O)N1C [Example 1003] ({CH2CO}-F[NMeA]NPHL[Sar]W[Aib]W[NMeNle][NMeNle]RCG-NH2; thioether N-14) | 100 to 10000 | –
CCCC[C@H]1C(=O)N(C)[C@@H](CCCC)C(=O)NC2(CC2)C(=O)C[C@H](C(=O)NCC(N)=O)CSCC(=O)N[C@@H](Cc2ccccc2)C(=O)N(C)[C@@H](C)C(=O)N[C@@H](CC(N)=O)C(=O)N2CCC[C@H]2C(=O)N[C@@H](Cc2c[nH]cn2)C(=O)N[C@@H](CCC(C)C)C(=O)NCC(=O)N[C@@H](Cc2c[nH]c3ccccc23)C(=O)N[C@@H](CO)C(=O)N[C@@H](Cc2c[nH]c3ccccc23)C(=O)N1C [Example 5001] (F[NMeA]NPH[hLeu]GWSW[NMeNle][NMeNle]; linker N-C via X5) | 100 to 10000 | –
CCCC[C@H]1C(=O)N(C)[C@@H](CCCC)C(=O)N[C@@H](CCCNC(=N)N)C(=O)NC(C(=O)NCC(N)=O)CSCC(=O)N[C@@H](Cc2ccc(O)cc2)C(=O)NC2(CC2)C(=O)N[C@@H](CC(N)=O)C(=O)N2CCC[C@H]2C(=O)N[C@@H](Cc2c[nH]cn2)C(=O)N[C@@H](CC(C)C)C(=O)N2C[C@H](O)C[C@H]2C(=O)N[C@@H](Cc2c[nH]c3ccccc23)C(=O)N[C@@H](CO)C(=O)N[C@@H](Cc2csc3ccccc23)C(=O)N1C (stereo partly drawn) [Example 9001] ({CH2CO}-Y[Ac3c]NPHL[Hyp]WS[Bta][NMeNle][NMeNle]R[ξC]G-NH2; thioether N-14) | 4 to 9.9 | –
CCCC[C@H]1C(=O)N(C)[C@@H](CCCC)C(=O)N[C@@H](CCCNC(=N)N)C(=O)NC(C(=O)NCC(N)=O)CSCC(=O)N[C@@H](Cc2ccc(O)cc2)C(=O)NC2(CC2)C(=O)N[C@@H](CC(N)=O)C(=O)N2CCC[C@H]2C(=O)N[C@@H](Cc2c[nH]cn2)C(=O)N[C@@H](CC(C)C)C(=O)N2C[C@H](O)C[C@H]2C(=O)N[C@@H](Cc2c[nH]c3ccccc23)C(=O)N[C@@H](CO)C(=O)N[C@@H](Cc2c[nH]c3ccccc23)C(=O)N1C (stereo partly drawn) [Example 9002] | – | 4.13

The next lines start with the values.

IC50 (values given as range classes) [nM] | IC50 (numeric values) [nM] | SMILES
10 to 99 | – | CCCC[C@H]1C(=O)N(C)[C@@H](CCCC)C(=O)N[C@@H](CCCNC(=N)N)C(=O)NC(C(=O)NCC(N)=O)CSCC(=O)N[C@@H](Cc2ccc(O)cc2)C(=O)NC(C)(C)C(=O)N[C@@H](CC(N)=O)C(=O)N2CCC[C@H]2C(=O)N[C@@H](Cc2c[nH]cn2)C(=O)N[C@@H](CC(C)C)C(=O)N2C[C@H](O)C[C@H]2C(=O)N[C@@H](Cc2c[nH]c3ccccc23)C(=O)N[C@@H](CO)C(=O)N[C@@H](Cc2csc3ccccc23)C(=O)N1C (stereo partly drawn) [Example 9003] ({CH2CO}-Y[Aib]NPHL[Hyp]WS[Bta][NMeNle][NMeNle]R[ξC]G-NH2; thioether N-14)
10 to 99 | – | CCCC[C@H]1C(=O)N(C)[C@@H](CCCC)C(=O)N[C@@H](CCCNC(=N)N)C(=O)NC(C(=O)NCC(N)=O)CSCC(=O)N[C@@H](Cc2ccc(O)cc2)C(=O)NC(C)(C)C(=O)N[C@@H](CC(N)=O)C(=O)N2CCC[C@H]2C(=O)N[C@@H](Cc2c[nH]cn2)C(=O)N[C@@H](CC(C)C)C(=O)N2C[C@H](O)C[C@H]2C(=O)N[C@@H](Cc2c[nH]c3ccccc23)C(=O)N[C@@H](CO)C(=O)N[C@@H](Cc2c[nH]c3ccccc23)C(=O)N1C (stereo partly drawn) [Example 9004]
100 to 10000 | – | CCCC[C@H]1C(=O)N(C)[C@@H](CCCC)C(=O)NC(C)(C)C(=O)N[C@H](C(=O)NCC(N)=O)CSCC(=O)N[C@@H](Cc2ccc(O)cc2)C(=O)N(C)[C@@H](C)C(=O)N[C@@H](CC(N)=O)C(=O)N2CCC[C@H]2C(=O)N[C@@H](CN)C(=O)N[C@@H](CC(C)C)C(=O)N2C[C@H](O)C[C@H]2C(=O)N[C@@H](Cc2c[nH]c3ccccc23)C(=O)N[C@@H](CCN)C(=O)N[C@@H](Cc2c[nH]c3ccccc23)C(=O)N1C [Example 9005] ({CH2CO}-Y[NMeA]NP[Dap]L[Hyp]W[Dab]W[NMeNle][NMeNle][Aib]CG-NH2; thioether N-14)
– | 40 | CCCC[C@H]1C(=O)N(C)[C@@H](CCCC)C(=O)NC2(CC2)C(=O)N[C@H](C(=O)NCC(N)=O)CSCC(=O)N[C@@H](Cc2ccc(O)cc2)C(=O)N(C)[C@@H](C)C(=O)N[C@@H](CC(N)=O)C(=O)N2CCC[C@H]2C(=O)N[C@@H](CN)C(=O)N[C@@H](CC(C)C)C(=O)N2C[C@H](O)C[C@H]2C(=O)N[C@@H](Cc2c[nH]c3ccccc23)C(=O)N[C@@H](CCN)C(=O)N[C@@H](Cc2c[nH]c3ccccc23)C(=O)N1C [Example 9006] ({CH2CO}-Y[NMeA]NP[Dap]L[Hyp]W[Dab]W[NMeNle][NMeNle][Ac3c]CG-NH2; thioether N-14)
100 to 10000 | – | CCCC[C@H]1C(=O)N(C)[C@@H](CCCC)C(=O)N[C@@H](CC(C)C)C(=O)N[C@H](C(=O)NCC(N)=O)CSCC(=O)N[C@@H](Cc2ccc(O)cc2)C(=O)N(C)[C@@H](C)C(=O)N[C@@H](CC(N)=O)C(=O)N2CCC[C@H]2C(=O)N[C@@H](CN)C(=O)N[C@@H](CC(C)C)C(=O)N2C[C@H](O)C[C@H]2C(=O)N[C@@H](Cc2c[nH]c3ccccc23)C(=O)NC(C)(C)C(=O)N[C@@H](Cc2c[nH]c3ccccc23)C(=O)N1C [Example 9007] ({CH2CO}-Y[NMeA]NP[Dap]L[Hyp]W[Aib]W[NMeNle][NMeNle]LCG-NH2; thioether N-14)
– | 3620 | CCCC[C@H]1C(=O)N(C)[C@@H](CCCC)C(=O)N[C@@H](CC(C)C)C(=O)N[C@H](C(=O)NCC(N)=O)CSCC(=O)N[C@@H](Cc2ccc(O)cc2)C(=O)N(C)[C@@H](C)C(=O)N[C@@H](CC(N)=O)C(=O)N2CCC[C@H]2C(=O)N[C@@H](CN)C(=O)N[C@@H](CC(C)C)C(=O)N2C[C@H](O)C[C@H]2C(=O)N[C@@H](Cc2c[nH]c3ccccc23)C(=O)NC2(CC2)C(=O)N[C@@H](Cc2c[nH]c3ccccc23)C(=O)N1C [Example 9008] ({CH2CO}-Y[NMeA]NP[Dap]L[Hyp]W[Ac3c]W[NMeNle][NMeNle]LCG-NH2; thioether N-14)
